The text below walks through data of patent US6933287B1, “Dramatic simplification of a method to treat neoplastic disease by radiation” (priority 1999, dated 2005).

The Ki is a dissociation constant, usually derived from enzyme kinetics or from competition with a known ligand.

For data set [1], the target named is T1, thymidylate synthetase (Lacticaseibacillus casei, UniProt P00469). The note with it: read-out: Ki for the inhibition of thymidylate synthetase; cited from earlier work.
In data set [2] the test system is radiation induced fibrosarcoma, RIF-1. The settings on record: toxic doses of CldC; cited from earlier work.
Data set [3] deals with T1, thymidylate synthetase. The note with it: cited from earlier work.
The nature of data set [4]: Half life of CldC with H4U in monkeys. Format: in vivo. The note with it: effect of H4U. The text has this:
(§1) Furthermore, CldC plus H4U was not toxic to dogs or monkeys. In monkeys and mice, H4U increased the half life of CldC. This is a very important indicator of the efficacy of CldC plus H4U in the treatment of diseases, in particular tumors in humans.

Data set [5] in a line: Half life of CldC with H4U in mice. Format: in vivo. The note with it: effect of H4U.
Text: as §1

T1 sequence (P00469 whole entry): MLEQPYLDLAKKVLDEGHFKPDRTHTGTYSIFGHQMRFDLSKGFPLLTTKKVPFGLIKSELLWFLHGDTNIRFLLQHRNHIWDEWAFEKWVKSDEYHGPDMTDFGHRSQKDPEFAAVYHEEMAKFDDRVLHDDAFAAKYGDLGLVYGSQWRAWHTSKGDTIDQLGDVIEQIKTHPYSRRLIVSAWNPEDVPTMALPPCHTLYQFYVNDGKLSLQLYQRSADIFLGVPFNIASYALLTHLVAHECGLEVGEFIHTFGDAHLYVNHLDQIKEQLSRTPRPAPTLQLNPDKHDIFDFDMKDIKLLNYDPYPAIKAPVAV

`O=c1[nH]c(=O)n([C@H]2C[C@H](O)[C@@H](COP(=O)(O)O)O2)cc1Br` [BrdUMP]: the Ki in data set [1] is 1400 nM. `Nc1nc(=O)n([C@H]2C[C@H](O)[C@@H](CO)O2)cc1Cl` [CldC, 5-chloro-2′-deoxycytidine]: in data set [2], the dose enhancement ratio is given as 1.6. For the compound `O=c1[nH]c(=O)n([C@H]2C[C@H](O)[C@@H](COP(=O)(O)O)O2)cc1Cl` [CldUMP], the Ki in data set [1] is 190 nM. For the same compound, the “dehalogenation by thymidylate synthetase” value in data set [3] is given as “not dehalogenated”.

Turning to `O=c1[nH]c(=O)n([C@H]2C[C@H](O)[C@@H](COP(=O)(O)O)O2)cc1F` [FdUMP], the Ki in data set [1] was 15 nM. In the case of `O=C1NC(O)CCN1[C@@H]1O[C@H](CO)[C@@H](O)[C@H]1O` (some centres unmarked) [H4U, tetrahydrouridine], the “half life of CldC” value in data set [4] and in data set [5] was “increased” throughout. With `O=c1[nH]c(=O)n([C@H]2C[C@H](O)[C@@H](COP(=O)(O)O)O2)cc1I` [IdUMP], the Ki in data set [1] was 1600 nM.
